PubChem BioAssay AID1671245

Target: Casein kinase I isoform epsilon (Homo sapiens) (UniProt P49674)
Experiment: inhibition of CK1 epsilon activity – biochemical, Z'-LYTE, FRET, direct format, dose response (AID 1671245)
Details: Z'-LYTE FRET kinase activity assay, recombinant CSNK1E

Casein kinase I isoform epsilon (Homo sapiens), sequence (P49674 whole entry, looked up, canonical isoform): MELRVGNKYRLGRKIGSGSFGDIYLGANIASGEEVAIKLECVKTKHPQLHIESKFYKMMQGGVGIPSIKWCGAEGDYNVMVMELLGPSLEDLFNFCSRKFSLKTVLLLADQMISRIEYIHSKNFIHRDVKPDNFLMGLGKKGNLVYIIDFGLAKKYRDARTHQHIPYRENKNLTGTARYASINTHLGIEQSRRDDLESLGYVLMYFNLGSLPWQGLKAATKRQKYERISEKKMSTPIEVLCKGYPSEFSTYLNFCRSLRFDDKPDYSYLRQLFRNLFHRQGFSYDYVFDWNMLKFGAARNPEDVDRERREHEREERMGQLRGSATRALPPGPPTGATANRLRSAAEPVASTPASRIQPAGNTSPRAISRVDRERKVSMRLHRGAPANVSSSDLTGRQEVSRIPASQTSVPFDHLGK

IC50: 4.83 µM
SMILES: Brc1c(Br)c(Br)c2n[nH]nc2c1Br
